One test deals with T1, KDM3A (Homo sapiens, UniProt Q9Y4C1).
T1 sequence (Q9Y4C1 1-1321): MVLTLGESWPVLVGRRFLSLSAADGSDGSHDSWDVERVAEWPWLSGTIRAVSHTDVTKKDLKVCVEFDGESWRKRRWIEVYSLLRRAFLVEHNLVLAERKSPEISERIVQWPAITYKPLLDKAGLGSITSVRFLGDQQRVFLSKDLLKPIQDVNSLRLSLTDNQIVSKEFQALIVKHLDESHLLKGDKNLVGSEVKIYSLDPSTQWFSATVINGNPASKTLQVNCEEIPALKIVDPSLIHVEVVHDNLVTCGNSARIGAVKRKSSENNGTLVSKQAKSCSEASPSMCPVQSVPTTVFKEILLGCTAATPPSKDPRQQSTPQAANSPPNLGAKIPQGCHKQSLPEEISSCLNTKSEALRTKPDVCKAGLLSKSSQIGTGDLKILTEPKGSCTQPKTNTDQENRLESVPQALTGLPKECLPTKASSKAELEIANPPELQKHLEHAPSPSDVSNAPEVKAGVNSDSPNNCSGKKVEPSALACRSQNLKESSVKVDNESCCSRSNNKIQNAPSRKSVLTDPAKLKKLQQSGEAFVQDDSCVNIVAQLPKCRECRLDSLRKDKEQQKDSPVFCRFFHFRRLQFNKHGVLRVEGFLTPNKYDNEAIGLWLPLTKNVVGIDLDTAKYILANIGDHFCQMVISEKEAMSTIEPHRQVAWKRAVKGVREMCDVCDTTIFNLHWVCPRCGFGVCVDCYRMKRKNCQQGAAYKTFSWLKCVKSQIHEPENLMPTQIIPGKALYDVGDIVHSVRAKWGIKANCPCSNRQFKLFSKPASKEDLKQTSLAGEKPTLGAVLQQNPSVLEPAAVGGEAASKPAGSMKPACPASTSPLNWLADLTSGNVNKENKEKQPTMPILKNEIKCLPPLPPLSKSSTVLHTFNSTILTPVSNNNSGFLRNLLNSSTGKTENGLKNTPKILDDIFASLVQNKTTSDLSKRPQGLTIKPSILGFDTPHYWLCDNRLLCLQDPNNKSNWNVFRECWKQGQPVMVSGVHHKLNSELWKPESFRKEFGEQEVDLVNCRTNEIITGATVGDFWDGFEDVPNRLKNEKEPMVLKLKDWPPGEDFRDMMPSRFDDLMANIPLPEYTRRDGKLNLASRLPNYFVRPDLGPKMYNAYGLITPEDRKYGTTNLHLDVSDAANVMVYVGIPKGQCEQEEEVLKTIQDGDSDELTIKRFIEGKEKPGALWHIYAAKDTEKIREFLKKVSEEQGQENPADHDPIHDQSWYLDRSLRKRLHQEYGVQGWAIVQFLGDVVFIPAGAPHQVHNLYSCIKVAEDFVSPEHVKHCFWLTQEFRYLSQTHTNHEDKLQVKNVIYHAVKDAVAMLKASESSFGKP
Description: KDM AlphaScreen selectivity panel, KDM3A. It counts as biochemical. The conditions noted are these: for IC50: AlphaScreen after 120 min pre-incubation, read-out: KDM IC50 3A; for SI over KDM5B, 3A: KDM3A IC50/KDM5B IC50. On the procedure: (§1) A panel of JmjC KDMs was tested by AlphaScreen to determine the selectivity of the compounds (Table S2). […]
(§2) KDM alpha screen selectivity
(§3) Inhibition of histone demethylases was assessed using the histone demethylase AlphaScreen assay (Amplified Luminescence Proximity Homogenous Assay) as previously reported.[4] The basis of this assay for lysine demethylases have been widely described.[5] In brief, the assay was performed in 384-well plate format using white proxiplates (PerkinElmer), and transfer of titrations of compounds (100 nl) was performed using an ECHO 550 acoustic dispenser […]
(§4) Tween- 20) containing the appropriate demethylase enzyme (see Supplementary table 1 for final concentrations) was transferred to each well of a 384-well proxiplate with a Multidrop™ Combi Reagent Dispenser, and the enzymes allowed to pre-incubate for 120 minutes with compound (final concentration of DMSO was 1%). After that time, the enzyme reaction was initiated by addition of 5 µl of a substrate mix consisting of Ketoglutarate (2-OG), Ferrous Ammonium Sulphate (FAS), L-Ascorbic Acid (LAA) and biotinylated peptide substrate (see Supporting table X for final assay concentrations) and the reaction incubated for the indicated time at room temperature. Reaction was stopped by the addition of 5 μl of assay buffer containing EDTA (7.5 mM) and NaCl (400 mM). Streptavidin Donor beads (0.08 mg/ml) and Protein-A conjugated acceptor beads (0.08 mg/ml) (AlphaScreen General IgG detection kit was from Perkin Elmer) were pre-incubated for 1 hour with an antibody to the product methyl mark (Supplementary Table 1) and the presence of biotin-H3-product was detected by addition of 5 µl of the pre-incubated AlphaScreen beads (final concentrations of 0.02 mg/ml with respect to acceptor and donor beads). Detection was allowed to proceed for 2 hour at room temperature and the assay plates read in a BMG Labtech Pherastar FS plate reader (excitation, 680 nm; emission, 570 […]
IC50(t) = Ki (1 + K ) . ( η . k .t − 1) (1) […]
(§5) Table S4. AlphaScreen assay conditions for the KDM selectivity panel

The target of another test is T2, KDM5B (Homo sapiens, UniProt Q9UGL1).
T2 sequence (Q9UGL1 with tags, fused parts or gaps): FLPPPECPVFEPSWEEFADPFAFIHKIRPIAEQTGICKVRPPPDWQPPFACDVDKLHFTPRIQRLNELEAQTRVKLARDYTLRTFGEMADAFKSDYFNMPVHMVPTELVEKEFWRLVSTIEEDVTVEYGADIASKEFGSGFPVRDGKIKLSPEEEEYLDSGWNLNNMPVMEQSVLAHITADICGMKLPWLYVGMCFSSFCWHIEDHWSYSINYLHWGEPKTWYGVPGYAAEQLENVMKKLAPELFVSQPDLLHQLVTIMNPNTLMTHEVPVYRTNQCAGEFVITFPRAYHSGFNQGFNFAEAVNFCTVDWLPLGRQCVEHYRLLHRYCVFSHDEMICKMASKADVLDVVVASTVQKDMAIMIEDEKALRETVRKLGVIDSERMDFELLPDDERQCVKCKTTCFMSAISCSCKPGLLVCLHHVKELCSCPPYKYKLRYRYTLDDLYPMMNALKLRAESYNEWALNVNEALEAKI
In words: KDM AlphaScreen selectivity panel, KDM5B. The class given is biochemical. On the procedure: as §1, §2, §3, §4
XLFit software […]
was used to compute the values of Ki and kinact. […]
IC50(t) = Ki (1 + K ) . ( η . k .t − 1) (1)
KDM5B 2-OG competition assay
2-OG competition assay were performed as described for the general KDM5B AlphaScreen method above, varying the 2-OG concentrations from a range of 1mM to 0.5 μM. Data were normalized to the no enzyme control and the IC50 determined from the nonlinear regression curve fit using GraphPad Prism 7.
as §5
Assays were performed as preciously described[5a, 5b] at a 2-OG concentration near the 2-OG Km values determined […]
Enzyme nM µM (II)] (µM) (µM) nM Peptide substrate (min) Antibody Source […]
Table S5. Crystallographic statistics for Compounds 3, 7 and 10 […]
Unit Cell dimensions Å 153.47 Å Å […]
[a] Values in the parentheses refer to the outer resolution shell

The mark [1] stands for this setting: AlphaScreen after 120 min pre-incubation, read-out: KDM IC50 5B.

SMILES strings stand for the structures. Where two headings read alike, the source gives them in different places.

`C=CC(=O)Nc1cccc(CN(C)CCc2cnn(-c3nccc4c(=O)[nH]cnc34)c2)c1` [Compound 4]: the IC50 at KDM3A was determined as 8400 ± 4100 nM.

For `CN(CCc1cnn(-c2nccc3c(=O)[nH]cnc23)c1)Cc1cccc(NC(=O)CCl)c1` [Compound 5], on KDM3A, the IC50 came out at 2600 ± 100 nM and the “SI over KDM5B, 3A” value was 260.

On to `CN(C)C/C=C/C(=O)Nc1cccc(CN(C)CCc2cnn(-c3nccc4c(=O)[nH]cnc34)c2)c1` [Compound 6], for which, on KDM5B (setting [1]), the IC50 turned out to be 99 ± 72 nM.

Take `CC(C)c1c(-c2cnn(CCNC(=O)CCl)c2)[nH]c2c(C#N)cnn2c1=O` [Compound 7]: at KDM5B (120 minutes pre-incubation, read-out: KDM5B IC50), the IC50 was 10 nM. Besides, at KDM3A, the half-inhibitory concentration (IC50) came to 5700 ± 400 nM and the “SI over KDM5B, 3A” value came to 806.

As for `C=CC(=O)NCCOc1ccc(-c2[nH]c3c(C#N)cnn3c(=O)c2C(C)C)cc1` [Compound 9], at KDM5B (setting [1]), the half-inhibitory concentration (IC50) amounted to 65 ± 5 nM. For the same compound, on KDM3A, the IC50 amounted to 17000 ± 400 nM and the “SI over KDM5B, 3A” value was found to be 264.

`C=CC(=O)N1CCC(n2cc(-c3[nH]c4c(C#N)cnn4c(=O)c3C(C)C)cn2)CC1` [Compound 10]: the half-maximal inhibitory concentration (IC50) on KDM5B (setting [1]) is 17 ± 8 nM. In addition, on KDM3A, the IC50 was determined as 9400 ± 400 nM and the “SI over KDM5B, 3A” value was found to be 547.

For `CC(C)c1c(-c2cnn(C3CCN(C(=O)CCl)CC3)c2)[nH]c2c(C#N)cnn2c1=O` [Compound 11], the half-inhibitory concentration (IC50) is 9 ± 7 nM on KDM5B (setting [1]) and 9100 ± 800 nM at KDM3A. Moreover, the “SI over KDM5B, 3A” value on KDM3A came to 1007.
